Reference: US5629298A, “Adenosine as a positive inotrop in the compromised heart” (University of Massachusetts Medical Center, priority 1995, dated 1997)
Where two headings read alike, the source gives them in different places.

What was measured:
[1] = test system: ventricular myocyte membrane adenylyl cyclase; assay: Adenylyl cyclase activity of ventricular myocyte membranes; assay type: biochemical, rat
Method: After a 3-4 hour incubation period, myocytes were harvested by placing the culture dishes on ice; aspirating and discarding the culture medium; scraping the attached cells into 1 ml of ice cold buffer (pH 7.4) containing 10 mM HEPES and 1 mM dithiothreitol (DTT); and transferring the mixture to a 40 ml centrifuge tube. The culture dishes were rinsed twice with buffer, and the rinses were added to the centrifuge tube. The myocytes were centrifuged at 45,000 x g for 45 minutes and the supernatant was discarded. The pellet was resuspended in 40 mM HEPES (pH 7.4) to yield 3.5-4 mg protein/ml and homogenized with a small clearance Dounce tissue grinder (8 strokes). The membranes were centrifugated as described above, resuspended (3-4 mg protein/ml) in 40 mM HEPES (pH 7.4), and assayed for adenylyl cyclase activity immediately or stored at -80° C. and assayed within 10 days.
The assay system used to measure adenylyl cyclase activity minimizes the formation of endogenous adenosine. The assay used was essentially as described by Romano et al. (supra). Myocyte membranes (15-25 μg protein) were incubated in 50 μl of a buffer containing 40 mM HEPES (pH 7.4), 5 mM MgCl2, 1 mM DTT, 5.5 mM KCl, 0.1 mM 2'-deoxy-cAMP (dcAMP), 0.1 mM 2'-deoxy ATP (dATP), 20 mM phosphoenolpyruvate, 2 units pyruvate kinase, 0.25 units adenosine deaminase, 1 mM ascorbic acid, 100 mM NaCl, 0.1 mM ethyleneglycol-bis (β-aminoethylether) N,N,N',N',-tetroaceticacid (EGTA), 10 μM guanosine 5'-triphosphate (GTP), and ~2×10^6 counts/minutes of [α-^32 P]dATP for 20 minutes at 30° C. The reaction was stopped by adding 40 μl of a solution containing 2% sodium dodecyl sulfate (SDS), 45 mM ATP, 1.3 mM cAMP, and [^3 H]dcAMP (~4000 count/min) and by boiling for 2 minutes.

[2] = test system: rat ventricular myocytes; assay: Contractile function of individual ventricular myocytes (line scan camera edge detection, paced at 0.5 Hz); assay type: cell-based; conditions: for +dL/dtmax, maximal rate of shortening / -dL/dtmax, maximal rate of relaxation / DS, duration of shortening / LC, maximum length change (shortening) with contraction / TPS, time-to-peak shortening / TR, time to 75% relaxation: mean ± SE, N = 6; for inhibition at 2 µM: Rattus norvegicus, Ventricular myocyte, PIA at 2 μM
Method: Primary cultures of adult rat ventricular myocytes were prepared essentially according to previously described methods (Romano et al., Am. J. Physiol. 257:H1088 (1989)). Two male Sprague-Dawley rats (Charles River, Wilmington, Mass. or Harlan, Indianapolis, Ind.) were decapitated, and the hearts were rapidly excised and constant pressure (70 cm H2) and nonrecirculated) perfused for 10 minutes through the aortas with filtered (0.45 μm membrane filter) perfusing solution (NaCl, 118 mM; glucose, 10 mM; NaHCO3 25 mM; KCl, 4.69 mM; MgSO4 1.18 mM; and KH2 PO4, 1.18 mM; (pH 7.4)), to which […] was added, at 37° C. After equilibration, the hearts were constant pressure perfused with fresh physiological saline ("PS") containing no added Ca^2+ until spontaneous contractions ceased (i.e., ~30 seconds). The hearts were then perfused for 4-10 minutes in a nonrecirculating manner with PS containing 0.73 mg/ml collagenase, 0.16 mg/ml hyaluronidase, 1 mg/ml recrystallized bovine serum albumin ("BSA") and 48.4 μM Ca^2+ at a rate of 3-4 ml/min/heart. Ventricles, free of atria, were removed from the perfusion system, cut into 8 pieces and placed in a 50 ml Erlenmeyer flask with 5 ml of PS containing 0.73 mg/ml collagenase, 0.16 mg/ml hyaluronidase, 2.5 mg/ml BSA, and 50 μM Ca^2+ (incubation solution). The flask was gently shaken (40 cycles/min) in a reciprocating water bath with continuous gassing (95% O2, 5% CO2) for 7 minutes at 37° C. The incubation solution was aspirated and this shaking procedure was repeated with fresh incubation solution 3-5 times depending on the likelihood that the tissue was ready to dissociate. After the final incubation period, the solution was aspirated and replaced with 10 ml of fresh incubation solution. The flask was then shaken rapidly (120 cycles/min) for 10 minutes with gassing to dissociate the myocytes. The flask contents were filtered through a 250 μm nylon mesh into a 50 ml polypropylene centrifuge tube, to which 40 ml of PS containing 5.95 mg/ml BSA and 99.7 μm Ca^2+ (wash solution) was gradually added.
The myocytes were allowed to settle for 15 minutes, and the upper two thirds of the wash solution was aspirated. Upon the addition of 30-35 ml of wash solution, this settling step was repeated. The wash solution was aspirated and the myocyte pellet was resuspended in 10 ml of minimum essential medium ("MEM"). The myocyte suspension was allowed to settle for 5 minutes and then brought to a final volume of 22 ml with MEM. Two milliliters of the myocyte suspension was seeded onto each of 60 mm culture dishes containing 2 ml of MEM.
The contractile function of individual myocytes was assessed by dispersing 50-100 cells in a 506 μl myocyte chamber (11×23×2 mm deep). The chamber (FIG. 1) was continuously suffused (850 μl/min) with fresh suffusion solution ("SS") in mM: 136.4 NaCl, 4.7 KCl, 1.0 CaCl2, 10 hydroxyethylpiperzine-ethanesulfonicacid (HEPES), 1.0 NaHCO3, 1.2 MgSO4, 1.2 KH2 PO4, 10 glucose, 0.6 ascorbate, 1.0 pyruvate) at 20° C. The chamber was mounted on an inverted microscope stage and contained platinum wire electrodes for initiating myocyte contraction at 0.5 Hz (voltage 10% above threshold for 5 msec duration).
The image of the myocyte was projected via an inverted microscope at 300× onto a line scan camera (Fairchild, Model 1600R) containing a linear array (1×3456) of photodiodes. When aligned with the longitudinal axis of the cell the camera detected the movement of the 2 ends of the myocyte upon contraction (shortening and relengthening). […] When the myocyte was transilluminated, both ends of the cell were easily discriminated. Myocyte length and length change with respect to time for a single contraction was measured by determining the pixels in which the appropriate transitions between light and dark occurred. The line scan camera was calibrated with a stage micrometer scaled in 10 μm divisions. The signals from the camera were directed to a Hewlett Packard computer (Model Vectra RS/20C). […]

[3] = test system: rat heart; assay: Isolated perfused heart, normoperfused or hypoperfused (mechanically depressed): LVP, +dP/dtmax, -dP/dtmax; conditions: atenolol; hypoperfusion
Method: Male Sprague-Dawley rats (500-550 g) were anesthetized with pentobarbital (40 mg/kg, i.p.) and treated with heparin (500 units, i.p.) for 15 minutes. Hearts were excised, rinsed in iced physiological saline ("PS") and perfused with PS (37° C.) via an aortic cannula at a constant rate of 18-20 ml/min. Perfusion pressure ranged from 50 to 60 mm Hg. The PS contained: NaCl, 118 mM; KCl, 4.7 mM; CaCl2, 2.5 mM; NaHCO3, 25 mM; KH2 PO4, 1.2 mM; MgSO4 1.2 mM; glucose 10 mM; and pyruvate 1.8 mM. The pH was maintained at 7.4 by gassing the PS with a 95% O2 /5% CO2 gas mixture. Platinum wire electrodes were inserted into the right atrium to allow pacing of the heart (300 contractions per minute) throughout the perfusion period. Developed left ventricular pressure (LVP) was measured with a saline-filled balloon inserted into the lumen of the left ventricle via the left atrium and attached by a polyethylene cannula to a pressure transducer. The pressure signal was electronically differentiated to obtain the maximum rates of left ventricular pressure development (+dP/dtmax) and relaxation (-dP/dtmax). Balloon volume was varied until the maximal obtainable dP/dt was attained. This optimal preload, ranging from 5 to 10 mm Hg, was maintained constant, permitting isovolumic contraction of the heart. Aortic perfusion pressure was monitored with another pressure transducer. All the LVP, +dP/dtmax, -dP/dtmax and aortic perfusion data were continually recorded on a multichannel polygraph. At the end of the experiment, the wet heart weights were determined; they ranged from 1.4 to 1.8 g.
After instrumentation, the hearts were normoperfused at 18-20 ml/min for 20 minutes, resulting in an aortic perfusion pressure of 50-60 mm Hg. Isoproterenol, adenosine, CGS-21680, DPCPX, atenolol, or a combination of these agents was administered for 1 to 2 minutes, via the aortic perfusion cannula, at 1/100th the perfusion flow rate, to achieve the stated PS concentrations. Isoproterenol was administered for only 5 seconds. To cause mechanical depression of the perfused hearts, the perfusion flow was lowered 5-6 ml/min. The resulting aortic perfusion pressure decreased to 20-30 mm Hg. The various agents either alone or in combination were administered via the PS to the hypoperfused hearts at 1/100th the perfusion flow rate, at the concentrations indicated.

[4] = Table 5, CGS-21680 and/or CGS-15943 at 10^-5 M, 10 min
[5] = Table 6, 10^-5 M SHA-082, 10^-5 M NECA, 10^-4 M adenosine, 2 × 10^-7 M DPCPX, 10^-5 M CGS-15943
[6] = addition of 0.1 μM DPCPX to 1 μM PIA + 0.1 μM ISO
[7] = Table 3, 1 μM PIA, 0.1 μM ISO, 0.1 μM DPCPX added sequentially every 8-10 min, maximum responses

SMILES: N=c1[nH]c2ccc(Cl)cc2c2nc(-c3ccco3)nn12 [CGS-15943, 9-chloro-2-(2-furanyl)-5,6-dihydro-1,2,4-triazolo-(1,5-C)quinazolin-5-imine]
- effect on the CGS-21680 increase in cyclase activity ([1]; 10 μM CGS-15943, 0.1 μM DPCPX present): prevented
- effect on the NECA increase in membrane cyclase activity ([1]; CGS-15943 at 10 μM, both in the absence and presence of DPCPX): prevented
- effect on the adenosine induced increases in contractile variables ([2]; 10 μM CGS-15943, 100 μM adenosine + 0.2 μM DPCPX): inhibited
- effect on the increase in myocyte contractility produced by CGS-21680 ([2]; CGS-15943 (10 μm), CGS-21680 (10 μm)): prevented
- +dL/dtmax, maximal rate of shortening [2, 4]: 146 ± 10 μm/msec
- -dL/dtmax, maximal rate of relaxation [2, 4]: 123 ± 11 μm/msec
- DS, duration of shortening [2, 4]: 331 ± 15 ms
- LC, maximum length change (shortening) with contraction [2, 4]: 18 ± 2 μm
- TPS, time-to-peak shortening [2, 4]: 122 ± 3 ms
- TR, time to 75% relaxation [2, 4]: 285 ± 10 ms

SMILES: Cn1c(=O)c2c(nc(C=Cc3cccc(Cl)c3)n2C)n(C)c1=O [CSC, 8-(3-chlorostyryl)caffeine]
- effect on the increase in the contractile variables elicited by 1 μM CGS-21680 ([2]; CSC at 1 μM, in the presence of 0.2 μM DPCPX): prevented

SMILES: CCCn1c(=O)c2[nH]c(C3CCCC3)nc2n(CCC)c1=O [DPCPX, 1,3-dipropyl-8-cyclopentylxanthine]
- effect on the PIA inhibition of ISO stimulated adenylyl cyclase activity ([1]; DPCPX at 0.1 μM): prevented
- effect on myocyte contractility when administered alone ([2]; 100 μM adenosine or 0.2 μM DPCPX): without effect
- effect on the PIA reduction of the ISO induced contractile responses ([2]; DPCPX at 0.2 μM, ISO 0.2 μM, PIA 2 μM): reversed
- +dL/dtmax, maximal rate of shortening [2, 5]: 179 ± 9 μm/msec
- -dL/dtmax, maximal rate of relaxation [2, 5]: 147 ± 11 μm/msec
- DS, duration of shortening [2, 5]: 279 ± 15 ms
- LC, maximum length change (shortening) with contraction [2, 5]: 17 ± 1 μm
- TPS, time-to-peak shortening [2, 5]: 116 ± 3 ms
- TR, time to 75% relaxation [2, 5]: 264 ± 11 ms
- further increase of the ISO induced enhancement in +dL/dtmax [2, 6]: 40%
- further increase of the ISO induced enhancement in LC [2, 6]: 26%
- lowering of DS below that observed in the presence of PIA+ISO [2, 6]: 27%

SMILES: CC(Cc1ccccc1)Nc1ncnc2c1ncn2[C@@H]1O[C@H](CO)[C@@H](O)[C@H]1O (some centres unmarked) [PIA, phenylisopropyladenosine]
- effect on ventricular myocyte contractile variables ([2]; PIA at 1 μM alone): no effect
- inhibition at 2 µM ([2]; ISO 0.2 μM, read-out: reduction of the ISO-induced decrease in DS): 47%
- inhibition at 2 µM ([2]; ISO 0.2 μM, read-out: reduction of the ISO-induced decrease in TPS): 82%
- inhibition at 2 µM ([2]; ISO 0.2 μM, read-out: reduction of the ISO-induced decrease in TR): 37%
- inhibition at 2 µM ([2]; ISO 0.2 μM, read-out: reduction of the ISO-induced increase in +dL/dtmax): 60%
- inhibition at 2 µM ([2]; ISO 0.2 μM, read-out: reduction of the ISO-induced increase in -dL/dtmax): 78%
- inhibition at 2 µM ([2]; ISO 0.2 μM, read-out: reduction of the ISO-induced increase in LC): 91%
- +dL/dtmax, maximal rate of shortening [2, 7]: 115 ± 17 μm/msec
- -dL/dtmax, maximal rate of relaxation [2, 7]: 85 ± 21 μm/msec
- DS, duration of shortening [2, 7]: 374 ± 23 ms
- LC, maximum length change (shortening) with contraction [2, 7]: 16 ± 2 μm
- TPS, time-to-peak shortening [2, 7]: 153 ± 5 ms
- TR, time to 75% relaxation [2, 7]: 308 ± 8 ms

SMILES: CC(C)NCC(O)COc1ccc(CC(N)=O)cc1 (centres unmarked) [atenolol]
- effect on the inotropic responses induced by adenosine or adenosine plus DPCPX [3]: did not affect
- effect on the isoproterenol elicited contractile responses [3]: completely prevented
